Measurements taken from patent US12570661B2, “Isoform-specific aldehyde dehydrogenase inhibitors” (The Board of Trustees of the Leland Stanford Junior …, priority 2020, dated 2026).
pIC50: −log10 of the molar value. “Also recorded” adds a separate entry of the source. Read-outs that look alike come from different tables or passages of the source.

What was measured:
ALDH1B1 [1] = target: T1, ALDH1B1 (Homo sapiens, UniProt P30837); assay: ALDEFLUOR assay of cellular ALDH1B1 activity in ALDH1B1-transfected ALDH1A3−/− A375 cells; type: cell-based; details: for effect on ALDH1B1-dependent ALDEFLUOR signal (cellular ALDH1B1 activity): flow cytometry; for pIC50: ALDEFLUOR, ALDH1B1-overexpressing ALDH1A3−/− A375 cells, read-out: ALDH1B1(in cellulo) IC50
T1 sequence (P30837 18-517): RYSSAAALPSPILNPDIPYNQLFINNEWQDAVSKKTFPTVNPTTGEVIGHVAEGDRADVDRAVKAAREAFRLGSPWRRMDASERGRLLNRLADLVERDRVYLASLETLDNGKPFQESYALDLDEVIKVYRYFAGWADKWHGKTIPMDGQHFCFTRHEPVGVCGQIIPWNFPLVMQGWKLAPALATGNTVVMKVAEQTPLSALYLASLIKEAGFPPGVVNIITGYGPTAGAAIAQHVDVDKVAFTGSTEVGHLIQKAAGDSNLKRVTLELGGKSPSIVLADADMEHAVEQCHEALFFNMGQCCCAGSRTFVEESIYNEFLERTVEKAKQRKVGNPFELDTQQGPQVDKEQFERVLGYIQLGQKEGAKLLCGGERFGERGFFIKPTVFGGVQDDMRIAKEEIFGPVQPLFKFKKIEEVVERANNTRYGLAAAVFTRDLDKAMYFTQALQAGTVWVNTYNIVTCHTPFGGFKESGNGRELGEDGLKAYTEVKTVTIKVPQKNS
Protocol: ALDH1A3^−/− A375 cells were seeded into a 6-well plate at a density of 5×10^5 cells/well and cultured for 24 h. The cells were then transfected with either pCMV6-entry, pCMV6-GFP (Addgene, plasmid 11153), or pCMV-ALDH1B1. After 24 h, the media was replaced and transfection efficiencies were estimated by the EGFP-positive cells in the pCMV-GFP-transfected well. The cells were cultured for another 24 h and their ALDH activities were quantified using the ALDEFLUOR assay. Briefly, the cells were isolated from the plate with trypsin and resuspended in ALDEFLUOR assay buffer (STEMCELL Technologies) at a concentration of 4×10^5 cells/mL. Each ALDEFLUOR assay used 0.5 mL of this cell suspension, and the cells were treated with individual compounds for 15 min at 37° C. and 5% CO2. The cell suspensions were then treated with 2.5 μL ALDEFLUOR reagent and incubated for an additional 30 min at 37° C. and 5% CO2. The cells were then collected by centrifugation (450×g) for 5 min at room temperature, resuspended in 200 μL assay buffer, and analyzed with an LSR II flow cytometer (BD Biosciences) at the Stanford FACS facility.

SW480 cells (spheroid) = assay: Matrigel spheroid growth / viability assay, SW480; type: cell-based; details: for GI50: Matrigel spheroid culture, 7 days, read-out: Spheroid SW480 GI50
Protocol: To prepare Matrigel-coated culture plates, 96-well and 24-well plates were placed on ice and coated with 25 μL or 300 μL, respectively, of Matrigel matrix (Corning, LDEV-free) that had been thawed overnight at 4° C. The plates were then placed in a 37° C. incubator for 30 min to allow the Matrigel to solidify. SW480 or HCT116 cells were suspended in spheroid culture medium (RPMI-1640 containing 20 ng/mL recombinant human epidermal growth factor (Abcam, ab9697), 20 ng/mL recombinant human fibroblast growth factor (BioVision, 4037), 5 μg/mL heparin (Sigma), 1× N-2 supplement (Thermo Fisher Scientific), 100 U/mL penicillin, and 100 μg/mL streptomycin) and then seeded into the 96-well and 24-well Matrigel-coated plates at densities of 1,000 or 5,000 cells/well and total well volumes of […] or 1 mL, respectively. Compounds were diluted in spheroid culture medium and added to the wells, and the spheroid were grown at 37° C. with 5% CO2 for 7 days.
To quantify spheroid growth at the 7-day endpoint, unstained spheroids were imaged with phase-contrast illumination using a Keyence BZ-X710 microscope. Some cultures were also stained with crystal violet to enable brightfield imaging. Briefly, the Matrigel spheroids cultures were treated with PBS containing 0.5% crystal violet and 5% methanol for 15 min at 37° C. and then gently washed 4×5 min with PBS. Spheroid sizes were quantified with ImageJ (Fiji) software using masks created with the default “Threshold” function and foreground/background adjustments to optimize masking fidelity. The full field of view was then selected for “Analyze Particles” analysis, providing numbered list of each spheroid and its area in the micrograph. In the few cases that two adjacent spheroids were treated as one object by the image processing software, their measurements were manually corrected using the “Freehand Selections” tool. To exclude background and debris from dead cells, spheroids with areas less than 500 μm^2 were excluded from the image analyses.
(§1) SW480 or HCT116 cells were seeded into regular or Matrigel-coated 96-well plates at a density of 1000 cells/well. The cells were cultured in the corresponding adherent or spheroid culture medium (200 μL/well) containing the designated compounds or an equivalent amount of DMSO vehicle. Each culture was maintained for 7 days, and then cell viabilities were measured using a CellTiter-Glo 3D Cell Viability Assay kit (Promega). Briefly, 100 μL of the culture medium was removed from each well and replaced with 100 μL 3D Cell Assay reagent. The cells in each well were next homogenized by vigorous pipetting, and the plate was incubated for 10 min at room temperature to stabilize the chemiluminescent signal. A 150-μL aliquot from each well was then transferred into a white opaque 96-well assay plate (flat-bottom and non-treated; Corning Costar) and luminescence intensities were measured with a Veritas microplate luminometer (Turner BioSystems).

SW480 cells (adherent) = assay: Cell viability assay, adherent SW480 cultures; type: cell-based, human; details: adherent culture, 7 days
Protocol: as §1

ALDH1B1 [2] = target: T1, ALDH1B1; assay: ALDH1B1 enzyme kinetics assay (NADH fluorescence, acetaldehyde substrate); type: biochemical; set-up: made in house; host or cells: E. coli BL21 (optionally co-expressed with GroEL/GroES); details: for pIC50: 1 μg/mL enzyme, 1 mM acetaldehyde, 1 mM NAD+, read-out: ALDH1B1(in vitro) IC50; for ALDH1B1 inhibition / isoform selectivity (in words): enzyme kinetics assays against ALDH isoforms
Protocol: Cloning, expression, and purification of human recombinant ALDH1A1, ALDH1A3, ALDH2, ALDH3A1, ALDH3A2, ALDH4A1, ALDH5A1 and ALDH7A1 isozymes were conducted as described previously (Chen, C. H. et al. (2015) Proc. Natl. Acad. Sci. U.S.A. 112, 3074-3079). Human ALDH1A2 (Origene, SC109995) and ALDH1B1 (T. Hurley, Indiana University) plasmids were cloned into the pET-15b expression vector (Novagen, 69661-3) containing an N-terminal hexahistidine tag. The mitochondria-targeting sequence of ALDH1B1 was also removed. For protein expression without chaperones, the pET-15b based plasmids were transformed into competent BL21 E. coli cells, which were subsequently grown in 1 L of Luria-Bertani medium containing 100 μg/mL ampicillin at 37° C. Once the OD600 value reached 0.6, the culture was transferred to 16° C. and 0.5 mM isopropyl β-d-1-thiogalactopyranoside was introduced to induce protein expression overnight. The bacteria were then pelleted by centrifugation (3000×g, 4° C. for 30 rain) and harvested. 40 mL BugBuster Master Mix buffer (MilliporeSigrna) containing a protease inhibitor cocktail (cOmplete; Roche) was added, and the cells were lysed by mechanically rolling the suspension at room temperature for 25 min. The lysate was centrifuged (16000×g, 4° C. for 30 min), and the soluble fraction was collected and mixed with 2 mL of Ni-NTA Superflow resin (Qiagen). After the mixture was avowed to rock at 4° C. for 1 h, it was used to create a 10-mL gravity column, which was sequentially treated with 40 mL of wash buffer 1 (20 mM sodium phosphate, 500 mM NaCl, 1 mM DTT, 20 mM imidazole, 5% glycerol, pH 7.4) and 25 mL of wash buffer 2 (20 mM sodium phosphate, 500 mM NaCl, 1 mM DTT, 40 mM imidazole, 5% glycerol, pH 7.4). The hexahistidine-tagged protein was then recovered by treated the column with 5 mL elution buffer (20 mM sodium phosphate, 500 mM NaCl, 1 mM DTT, 400 mM imidazole, 5% glycerol, pH 7.4) and collecting 500-μL fractions. The protein concentration for each fraction was measured (500 μL elution volume was collected as one fraction and was immediately mixed with 500 μL glycerol. The protein concentration for each fraction was measured (600 nm Protein Assay Reagent; Thermo Fisher Scientific), and protein-containing fractions were diluted with an equal volume of glycerol and stored at −80° C. Samples from each step were also collected for SDS-PAGE gel analysis. For ALDH1B1 protein co-expression with chaperones, pET-15b-ALDH1B1 and GroEL/GroES (Addgene, plasmid pBB541) plasmids were co-transformed into competent BL21 E. coli cells, which were subsequently grown in 1 L of Luria-Bertani medium containing 100 μg/mL ampicillin and 50 μg/mL spectinomycin at 37° C. The hexahistidine-tagged ALDH1B1 protein was then expressed and purified as described above.
To evaluate compound activities against ALDH isoforms, reaction mixtures consisting of enzyme assay buffer (100 mM sodium phosphate, 1 mM MgCl2, pH 8.0) and 0.1% DMSO, 1 mM β-mercaptoethanol, 1 mM NAD^+, and the bacterially expressed protein were prepared in white opaque 96-well assay plates (100 μL/well, flat-bottom and non-treated; Corning Costar). 5 μg/mL ALDH enzyme was used for single-dose (1, 10, 50 μM) compound test, and 1 μg/mL ALDH enzyme was used for IC50s determination. Acetaldehyde was then added to each well to achieve an initial substrate concentration of 1 mM, and the resulting enzymatic activity was measured based on NADH fluorescence. The fluorescence signal was read over the course of 10 min on a SpectraMax M2e microplate reader (340-nm excitation and 460-nm emission; Molecular Devices) operated by SoftMax Pro software. Compound activities were normalized to a DMSO control, and dose-response inhibition curves were fitted with four-parameter non-linear regression using Prism software. […]

NIH-3T3 cells = assay: Seahorse oxygen-consumption-rate assay (NIH3T3); type: cell-based, murine; details: Mus musculus
[3] = HEK-293T cytotoxicity (cell viability) assay; type: cell-based; details: human, HEK-293T cells; adherent HEK-293T, 4-5 days, CellTiter-Glo; read-out: HEK293T GI50
Protocol: HEK-293T cells were seeded into a 96-well plate at a density of 5×10^3 cells/well and treated with varying concentrations of selected compounds or an equivalent amount of DMSO vehicle. The cells were cultured for 4-5 days without a media change, and after the DMSO-treated cells approached 100% confluence, the cell viabilities were measured using a CellTiter-Glo 3D Cell Viability Assay kit (Promega) and a Veritas microplate luminometer (Turner BioSystems) as described above.

## COc1ccccc1-c1ccc(C2=CN(c3ccccc3OC)C3=NCCCCN23)cc1 [Compound 72]
ALDH1B1 [1]
  effect on ALDH1B1-dependent ALDEFLUOR signal (cellular ALDH1B1 activity): inhibit cellular ALDH1B1 activity
SW480 cells (spheroid); combination with 5-FU
  efficacy on SW480 spheroid growth in combination with 5-FU: closely matched the product of their individual activities

## CCN(CC)c1ccc(C=O)cc1 [DEAB, N-diethylaminobenzaldehyde, reference compound]
ALDH1B1 [1]
  effect on ALDH1B1-dependent ALDEFLUOR signal (cellular ALDH1B1 activity): inhibited; also recorded: abrogated

## CCOc1ccc(C2=CN(c3ccc(-c4ccccc4OC)cc3)C3=NCCCCN23)c(OC)c1 [Guanidine 64]
SW480 cells (adherent); Homo sapiens, SW480, 168 h
  GI50: 1300 nM
SW480 cells (spheroid); Homo sapiens, SW480, 168 h
  GI50: 1100 nM
ALDH1B1 [2]
  pIC50: 7.00

## CCOc1ccc(C2=CN(c3ccc(-c4ccccc4OC)cc3)C3=NCCCN23)c(OC)c1 [Guanidine 65]
SW480 cells (adherent); Homo sapiens, SW480, 168 h
  GI50: 2900 nM
SW480 cells (spheroid); Homo sapiens, SW480, 168 h
  GI50: 1600 nM
ALDH1B1 [2]
  pIC50: 6.89

## COc1ccccc1C1=CN(c2ccc(-c3ccccc3)cc2)C2=NCCCN12 [Guanidine 66]
ALDH1B1 [1]
  effect on ALDH1B1-dependent ALDEFLUOR signal (cellular ALDH1B1 activity): inhibits cellular ALDH1B1 activity
ALDH1B1 [2]
  ALDH1B1 inhibition / isoform selectivity (in words): ALDH1B1-selective inhibitors

## Br.COc1ccccc1C1=CN(c2ccc(-c3ccccc3)cc2)C2=NCCCCN12 [Guanidine 68]
ALDH1B1 [2]
  ALDH1B1 inhibition / isoform selectivity (in words): ALDH1B1-selective inhibitors

## CCOc1ccc(N2C=C(c3ccc(-c4ccccc4)cc3)N3CCCCN=C32)cc1 [Guanidine 73]
ALDH1B1 [1]
  pIC50: 5.17
NIH-3T3 cells
  pIC50: 5.62
ALDH1B1 [2]
  pIC50: 5.72

## COc1ccccc1N1C=C(c2ccc(-c3ccccc3)cc2)N2CCCCN=C21 [HPI-269]
ALDH1B1 [1]
  pIC50: 6.96
[3]
  GI50: 3400 nM
NIH-3T3 cells
  pIC50: 6.24
ALDH1B1 [2]
  pIC50: 7.09

## COc1ccccc1N1C=C(c2ccc(-c3ccccc3)cc2)N2CC(C)(C)CN=C21 [HPI-279]
ALDH1B1 [1]
  pIC50: 6.96
ALDH1B1 [2]
  pIC50: 7.09

## COc1ccccc1-n1cc(-c2ccc(-c3ccncc3)cc2)[n+]2c1CCCCC2.[Br-] [Imidazolium 13]
ALDH1B1 [2]; dose-response, FIG. 15 panel d
  potency against ALDH1B1 relative to imidazolium 2 (and 8): approximately 2 fold
ALDH1B1 [2]
  ALDH1B1 inhibition / isoform selectivity (in words): ALDH1B1-specific inhibitors; also recorded: enhanced specificity for ALDH1B1 in comparison to imidazolium 2

## COc1ccccc1C1=CN(c2ccc(-c3ccccc3)cc2)C2=NCCCN12 [STL5-T-0001]
SW480 cells (adherent)
  GI50: 1900 nM
SW480 cells (spheroid)
  GI50: 1500 nM
ALDH1B1 [2]
  pIC50: 7.01

## COc1cc(Cl)ccc1C1=CN(c2ccc(-c3ccccc3)cc2)C2=NCCCCN12 [STL5-T-0025]
[3]
  GI50: 5200 nM
ALDH1B1 [2]
  pIC50: 7.38

## CCc1ccccc1C1=CN(c2ccc(-c3ccccc3)cc2)C2=NCCCCN12 [STL5-T-0027]
[3]
  GI50: 4300 nM
ALDH1B1 [2]
  pIC50: 7.36

## COc1cc(Cl)ccc1C1=CN(c2ccc(-c3ccccc3OC)cc2)C2=NCCCN12 [STL5-T-0057]
[3]
  GI50: 1700 nM
SW480 cells (adherent); Homo sapiens, SW480, 168 h
  GI50: 2700 nM
SW480 cells (spheroid); Homo sapiens, SW480, 168 h
  GI50: 440 nM
ALDH1B1 [2]
  pIC50: 7.52

## CCc1cc(Cl)ccc1C1=CN(c2ccc(-c3ccccc3)cc2)C2=NCCCN12 [STL8-T-0002]
[3]
  GI50: 1500 nM
ALDH1B1 [2]
  pIC50: 7.28

## CCc1cc(Cl)ccc1C1=CN(c2ccc(-c3ccccc3CC)cc2)C2=NCCCN12 [STL8-T-0003]
[3]
  GI50: 1300 nM
ALDH1B1 [2]
  pIC50: 7.13
